From US20240009269A1 (priority 2020, published 2024)

System: mouse brain
Assay: Safety of BBBO in mice (neurological deficits, MRI, histology)
Type: in vivo
Experimental: 273-285] in ImageJ. […] Subsequently, animals were sacrificed for further histological assessment.
In brief, each post-contrast image was first fitted into two Gaussian distributions, and the cutoff of signal intensity was determined. Data analysis and calculation of area fraction was performed using custom-written MATLAB scripts. 24 hours and 7 days after melittin treatment, animals were trans-cardially perfused with 5% sucrose in deionized water and then 4% paraformaldehyde in phosphate buffered saline. The brains were cryopreserved in 30% sucrose and cryo-sectioned in 30 μm slices. Primary antibodies used in the study are described in Table 2. Goat anti-rabbit Alexa Fluor-488 or Alexa Fluor-594 (1:250, Life Technologies) were used as secondary antibodies for fluorescence assessment using an inverted microscope (Zeiss, Axio Observer Z1). For demyelination assessment, eriochrome cyanine R staining was performed as described previously [Golubczyk, D., et al., Mol Neurobiol, 2019. 56(8): p. 5740-5748] with assessment using bright-field microscopy. Quantitation of immunohistochemistry (based on relative fluorescence intensity) and MRI analysis (based on intensity) were performed using Image J. For each mouse, three ROIs of the ipsilateral and contralateral BBBO regions were drawn, respectively.

CC[C@H](C)[C@H](NC(=O)CN)C(=O)NCC(=O)N[C@@H](C)C(=O)N[C@H](C(=O)N[C@@H](CC(C)C)C(=O)N[C@@H](CCCCN)C(=O)N[C@H](C(=O)N[C@@H](CC(C)C)C(=O)N[C@H](C(=O)N[C@H](C(=O)NCC(=O)N[C@@H](CC(C)C)C(=O)N1CCC[C@H]1C(=O)N[C@@H](C)C(=O)N[C@@H](CC(C)C)C(=O)N[C@H](C(=O)N[C@@H](CO)C(=O)N[C@@H](Cc1c[nH]c2ccccc12)C(=O)N[C@H](C(=O)N[C@@H](CCCCN)C(=O)N[C@@H](CCCNC(=N)N)C(=O)N[C@@H](CCCCN)C(=O)N[C@@H](CCCNC(=N)N)C(=O)N[C@@H](CCC(N)=O)C(=O)N[C@@H](CCC(N)=O)C(N)=O)[C@@H](C)CC)[C@@H](C)CC)[C@@H](C)O)[C@@H](C)O)C(C)C)C(C)C [melittin]
long-term survival (30 days) (3 μM·minute): reached that endpoint without complications | mortality (3 μM·minute, 11 mice): One mouse in this group died within 12 hours | neurological deficits (paralysis, seizure, or rotation) (3 μM·minute, 11 mice): all animals except one woke up from anesthesia without apparent neurological deficits | GFAP, Iba1, NeuN, and caspase-3 intensities between hemispheres (3 μM·minute, 24 hours): not statistically different | MRI (T2, SWI) (3 μM·minute, 24 hours): no evidence of edema or inflammation on T2 scans or micro-hemorrhages on susceptibility weighted imaging (SWI) scans | GFAP and Iba1 intensity, ipsilateral vs contralateral (3 μM·minute, 7 days): no statistically significant differences | MRI (3 μM·minute, 7 days): no abnormalities were detected | NeuN and caspase-3 intensity in the ipsilateral hemisphere (3 μM·minute, 7 days): no statistically significant change | eriochrome cyanine staining (myelin) (3 μM·minute, 7 days, hippocampus): normal myelin | behavior after dosing (5 μM·minute): mice displayed rotational behavior indicating neurological damage
